These results are taken from patent US8288423B2, “FXa inhibitors with cyclic amidines as P4 subunit, processes for their preparations, and pharmaceutical compositions and derivatives thereof” (Legochem Bioscience Ltd., priority 2007, dated 2012).

The Ki is a measure of affinity in units of concentration, obtained from inhibition or displacement.

Experiment [1] has as its system thrombus formation. Kind of experiment: % inhibition against thrombus formation, arteriovenous shunt model in white rats. Also noted: concentration or dose not given beside the values. The class given is in vivo, white rats (male Sprague Dawley). Particulars: orally administered 1 hour before opening of the shunt; 15 minutes circulation; versus control group. As for the experimental part:
3) Determination of % Inhibition Against Thrombus Formation by Means of Arteriovenous Shunt Model ([…]) in White Rats Antithrombotic effect of the compounds according to the present invention was evaluated by using arteriovenous shunt model in white rats. The animals used were male Sprague Dawleys with the body weight of 200-250 g. For one day before the experiment, the animals were fasted. Five to six animals were used for each test group. The compound of Example was orally administered 1 hour before opening of the shunt. The rats were anesthetized by abdominal administration of Rompun (Bay HealthCare) and Chloral hydrate or urethane in an amount of 12 and 50 mg per kg of the body weight. Into the left carotid artery and right jugular vein of the white rat, a polyethylene(PE)-60 tubing filled with physiological saline was inserted and secured. Both ends of individual PE tubing were connected to a silicone tubing having a length of 5 cm in which a cotton thread have been incorporated diagonally, and the shunt was open to provide circulation for 15 minutes. The shunt was then compressed by using jaws, and the cotton thread was carefully removed and the thrombus generated was weighed. The % inhibition of thrombus formation was calculated by using the weight of thrombus obtained from white rats of the control group to which a solution of oral administration was administered.

In experiment [2] the test system is plasma. Kind of experiment: Measurement of aPTT (activated partial thromboplastin time) in plasma. It is filed as biochemical. Also noted: unit not given here. Particulars: STA-PTT, CaCl2, 37° C., unit not given. As for the experimental part: The effect of oxazolidinone derivatives with cyclic amidines represented by Chemical Formula (1) according to the invention on blood coagulation was compared by measuring PT (prothrombin time) and aPTT (activated Partial Thromboplastin Time). The procedure of measurement is described below. A solution (5 μL) of the oxazolidinone derivative with cyclic amidine group represented by Chemical Formula (1) according to the invention (in a various concentration gradient, 5% DMSO solution) was added to the plasma ([…]), and the reaction was carried out at 37° C. for 2 minutes. STA-PTT (Diagnostica Stago) (50 μL) was then added thereto. After the reaction at 37° C. for additional 5 minutes, 25 mM CaCl2 (50 μL) was added thereto, and the duration for plasma coagulation was measured. The duration for plasma coagulation was determined as the point when the absorbance at 340 nm reaches 0.1.

Experiment [3] deals with T1, factor Xa (Homo sapiens, UniProt P00742).
T1 construct: purchased Enzyme Research Laboratories
Kind of experiment: Inhibiting activity of factor Xa inhibitor (chromogenic substrate S-2765). The class given is biochemical. The conditions noted are these: calculated from IC50 by Equation 1, Km 125 μM; S-2765 substrate, pH 7.8, 37° C.; read-out: Ki (nM), factor Xa inhibition constant. The protocol: Relative rate of hydrolysis (as compared to control group without inhibition) was plotted versus logarithm of the concentration of the oxazolidinone derivative with a cyclic amidine represented by Chemical Formula (1) according to the invention, to obtain the concentration of the inhibitor for 50% decrease in the rate of hydrolysis of the substrate.
The inhibition constant can be obtained by spectrophotometry whereby the color development is determined as a function of time, after being reacted with a specific substrate which develops color upon hydrolysis caused by action of factor Xa.
For the inhibitor solution, the inhibitor compound according to the present invention was diluted with dimethylsulfoxide (DMSO) in 10 mM, and then further diluted with third-distilled water (finally 10% DMSO solution), and the solution (10 μL) was added to each well. […] The substrate solution (20 μL) thus prepared was added to each well.
Kinetic analysis of the reaction was performed by a kinetic plate reader (Molecular Devices, Spectramax 190) at 37° C. for 20 minutes.
Relative rate of hydrolysis (compared to control group without inhibition) versus logarithm of the oxazolidinone derivative with a cyclic amidine group (Chemical Formula I) was plotted to obtain the concentration of the inhibitor to decrease the rate of hydrolysis of the substrate by 50%. GraFit (version 5.0.12) program for statistical process purchased from Erithacus Software was employed.
When inhibition constant Ki is calculated, it can be calculated according to Equation (1).

Experiment [4] has as its system Citrated plasma. Description: Measurement of PT (prothrombin time) in citrated plasma. The class given is biochemical. Particulars: STA-Neoplastine, 37° C., unit not given (2×PT value). As for the experimental part:
The effect of oxazolidinone derivatives with cyclic amidines represented by Chemical Formula (1) according to the invention on blood coagulation was compared by measuring PT (prothrombin time) and aPTT (activated Partial Thromboplastin Time). The procedure of measurement is described below. Citrated plasma was purchased from Daejeon-Chungnam Blood Institute (located at Daejeon, Korea). A compound solution (5 μL) according to the invention (in a various concentration gradient, 5% DMSO solution) was added to the plasma ([…]), and the reaction was carried out at 37° C. for 5 minutes. STA-Neoplastine (Diagnostica Stago) (100 μL) was then added thereto, and the duration for plasma coagulation was measured. The duration for plasma coagulation is determined as the point when the absorbance at 340 nm reaches 0.1.

T1 sequence (P00742 235-488 limits assumed): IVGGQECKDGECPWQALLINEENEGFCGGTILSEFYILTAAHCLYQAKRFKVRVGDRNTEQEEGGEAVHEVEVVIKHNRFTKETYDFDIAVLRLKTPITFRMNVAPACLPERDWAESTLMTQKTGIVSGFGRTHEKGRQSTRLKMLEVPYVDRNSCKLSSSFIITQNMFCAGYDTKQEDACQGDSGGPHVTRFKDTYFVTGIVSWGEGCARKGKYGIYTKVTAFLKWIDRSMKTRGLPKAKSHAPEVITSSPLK
T1 sequence (P00742 41-179 partner limits assumed): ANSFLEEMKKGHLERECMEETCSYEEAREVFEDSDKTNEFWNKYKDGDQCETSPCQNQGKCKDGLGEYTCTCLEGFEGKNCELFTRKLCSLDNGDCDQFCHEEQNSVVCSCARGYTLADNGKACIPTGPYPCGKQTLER

For the compound `O=C(NC[C@H]1CN(c2ccc(C3=NCCCN3)cc2)C(=O)O1)c1ccc(Cl)s1` [Compound 106, 5-chlorothiophene-2-carboxylic acid {(S)-2-oxo-3-[4-(1,4,5,6-tetrahydropyrimidine-2-yl)-phenyl]-oxazolidin-5-ylmethyl}-amide], the “% Inhibition (of thrombus formation)” value in experiment [1] came out at 0%. The compound further showed an APTT in experiment [2] of 0.55. In experiment [3], the Ki is 13.1 nM. Besides, the PT in experiment [4] was determined as 0.09.
Take `CN1CCN=C1c1ccc(N2C[C@H](CNC(=O)c3ccc(Br)s3)OC2=O)cc1` [Compound 108, 5-bromothiophene-2-carboxylic acid {(S)-3-[4-(1-methyl-4,5-dihydro-1H-imidazol-2-yl)-phenyl]-2-oxo-oxazolidin-5-ylmethyl}-amide]: the “% Inhibition (of thrombus formation)” value in experiment [1] was determined as 30%. Further, the APTT in experiment [2] turned out to be 0.15. For the same compound, in experiment [3], the inhibition constant Ki was 2.42 nM. The PT in experiment [4] is recorded as 0.03.
As to `CCN1CCN=C1c1ccc(N2C[C@H](CNC(=O)c3ccc(Br)s3)OC2=O)cc1` [Compound 109, 5-bromothiophene-2-carboxylic acid {(S)-3-[4-(1-ethyl-4,5-dihydro-1H-imidazol-2-yl)-phenyl]-2-oxo-oxazolidin-5-ylmethyl}-amide], in experiment [1], the “% Inhibition (of thrombus formation)” value is reported as 26%. Moreover, in experiment [3], the Ki is 4.67 nM.
In the case of `CCN1CCN=C1c1ccc(N2C[C@H](CNC(=O)c3ccc(Cl)s3)OC2=O)cc1F` [Compound 110], the “% Inhibition (of thrombus formation)” value in experiment [1] is 38%. For the same compound, in experiment [2], the APTT is on record as 0.19. Moreover, the Ki in experiment [3] was 4.4 nM. This compound also had a PT in experiment [4] of 0.03.
For `CN1CCCN=C1c1ccc(N2C[C@H](CNC(=O)c3ccc(Cl)s3)OC2=O)cc1F` [Compound 111, 5-chloro-thiophene-2-carboxylic acid {(S)-3-[3-fluoro-4-(1-methyl-1,4,5,6-tetrahydropyrimidin-2-yl)-phenyl]-2-oxo-oxazolidin-5-ylmethyl}-amide], in that order: 49%, 0.28, 10.5 nM and 0.03.
For `CCN1CCN=C1c1ccc(N2C[C@H](CNC(=O)c3ccc(Cl)s3)OC2=O)cc1Cl` [Compound 112, 5-chlorothiophene-2-carboxylic acid {(S)-3-[3-chloro-4-(1-ethyl-4,5-dihydro-1H-imidazol-2-yl)-phenyl]-2-oxo-oxazolidin-5-ylmethyl}-amide], in that order: 26%, 0.19, 4.05 nM and 0.05.
Regarding `CN1CCCN=C1c1ccc(N2C[C@H](CNC(=O)c3ccc(Cl)s3)OC2=O)cc1Cl` [Compound 113, 5-chloro-thiophene-2-carboxylic acid {(S)-3-[3-chloro-4-(1-methyl-1,4,5,6-tetrahydropyrimidin-2-yl)-phenyl]-2-oxo-oxazolidin-5-ylmethyl}-amide], the “% Inhibition (of thrombus formation)” value in experiment [1] is recorded as 53%. In experiment [2], the APTT amounted to 0.35. In addition, in experiment [3], the Ki was 9.19 nM. In experiment [4], this compound showed a PT of 0.11.
For `CC1=NCCN1c1ccc(N2C[C@H](CNC(=O)c3ccc(Cl)s3)OC2=O)cc1` [Compound 114], in that order: 41%, 0.12, 2.45 nM and 0.03.
With `O=C(NC[C@H]1CN(c2ccc(N3C=NCC3)cc2)C(=O)O1)c1ccc(Cl)s1` [Compound 115], the APTT in experiment [2] is recorded as 2.61. Besides, the Ki in experiment [3] was 1.29 nM. The same compound returned a PT in experiment [4] of 0.34.
As for `O=C(NC[C@H]1CN(c2ccc(N3CCN=C3C3CCC3)cc2)C(=O)O1)c1ccc(Cl)s1` [Compound 118], the inhibition constant Ki in experiment [3] was 69.9 nM. Moreover, in experiment [4], the PT came out at 0.58.
Consider `CC(C)CC1=NCCN1c1ccc(N2C[C@H](CNC(=O)c3ccc(Cl)s3)OC2=O)cc1` [Compound 119], for which the “% Inhibition (of thrombus formation)” value in experiment [1] is recorded as 4%. Further, in experiment [3], the inhibitory constant (Ki) is 3.7 nM. The compound further showed a PT in experiment [4] of 0.03.
In the same order, the values of `C=C(C)C1=NCCN1c1ccc(N2C[C@H](CNC(=O)c3ccc(Cl)s3)OC2=O)cc1` [Compound 120] are 37%, 27.9 nM and 0.31.
As to `CC(C)=CC1=NCCN1c1ccc(N2C[C@H](CNC(=O)c3ccc(Cl)s3)OC2=O)cc1` [Compound 121], the “% Inhibition (of thrombus formation)” value in experiment [1] is recorded as 35%. In addition, the Ki in experiment [3] was 1.81 nM. This compound returned a PT in experiment [4] of 0.06.
In the case of `O=C(NC[C@H]1CN(c2ccc(N3CCN=C3C3CCOC3)cc2)C(=O)O1)c1ccc(Cl)s1` (some centres unmarked) [Compound 125], the “% Inhibition (of thrombus formation)” value in experiment [1] is 42%. The inhibitory constant (Ki) in experiment [3] is 2.33 nM. Also, in experiment [4], the PT amounted to 0.05.
In the same order, the values of `O=C(NC[C@H]1CN(c2ccc(N3CCN=C3c3ccncc3)cc2)C(=O)O1)c1ccc(Cl)s1` [Compound 126] are 22%, 12.8 nM and 0.16.
For the compound `O=C(NC[C@H]1CN(c2ccc(N3CCN=C3c3cccnc3)cc2)C(=O)O1)c1ccc(Cl)s1` [Compound 127], the “% Inhibition (of thrombus formation)” value in experiment [1] is listed as 27%. The inhibition constant Ki in experiment [3] is 6.14 nM. For the same compound, the PT in experiment [4] is on record as 0.12.
In the same order, the values of `O=C(NC[C@H]1CN(c2ccc(N3CCN=C3c3ccccn3)cc2)C(=O)O1)c1ccc(Cl)s1` [Compound 128] are 22%, 13.9 nM and 0.95.
For the compound `Cc1ccc(C2=NCCN2c2ccc(N3C[C@H](CNC(=O)c4ccc(Cl)s4)OC3=O)cc2)cc1` [Compound 129], the “% Inhibition (of thrombus formation)” value in experiment [1] amounted to 0%. Further, the Ki in experiment [3] was 0.92 nM. Besides, the PT in experiment [4] worked out at 0.30.
`Cc1csc(C2=NCCN2c2ccc(N3C[C@H](CNC(=O)c4ccc(Cl)s4)OC3=O)cc2)n1` [Compound 130]: the “% Inhibition (of thrombus formation)” value in experiment [1] came out at 15%. In addition, in experiment [3], the Ki was 8.6 nM. Further, the PT in experiment [4] was determined as 0.94.
In the same order, the values of `O=C(NC[C@H]1CN(c2ccc(N3CCN=C3c3cccc(Cl)c3)cc2)C(=O)O1)c1ccc(Cl)s1` [Compound 133] are 44%, 1.21 nM and 0.26.
Turning to `O=C(NC[C@H]1CN(c2ccc(N3CCN=C3c3ccc(C(F)(F)F)cc3)cc2)C(=O)O1)c1ccc(Cl)s1` [Compound 134], the “% Inhibition (of thrombus formation)” value in experiment [1] turned out to be 4%. Besides, the Ki in experiment [3] is 4.01 nM. Besides, the PT in experiment [4] was determined as 0.36.
For `COC(=O)C(C)(C)C1=NCCN1c1ccc(N2C[C@H](CNC(=O)c3ccc(Cl)s3)OC2=O)cc1` [Compound 136], in that order: 31%, 1.78 nM and 0.10.
On to `O=C(NC[C@H]1CN(c2ccc(N3CCN=C3c3ccc(Cl)s3)cc2)C(=O)O1)c1ccc(Br)s1` [Compound 140], for which the “% Inhibition (of thrombus formation)” value in experiment [1] is 40%. Besides, in experiment [3], the Ki is 2.63 nM. In experiment [4], this compound gave a PT of 0.24.
